Measured values reported in ChEMBL document CHEMBL4699449, “Adenosine A Receptor Antagonists for Cancer Immunotherapy” (J Med Chem, 2020).
Values belong to the compound of their own block, whether it stands above or below them.

Legend:
[1] = Half life in mouse at 2 mg/kg, iv or 10 mg/kg, po measured up to 24 hrs by LC-MS/MS analysis; assay type: ADME, organism-based; conditions: in vivo
[2] = Cmax in mouse at 1 mg/kg, iv measured up to 24 hrs by LC-MS/MS analysis; assay type: ADME, organism-based; parameters: route intravenous, dose 1 mg/kg, time <=24; conditions: in vivo
Adenosine receptor A2a [3] = biological target: T1, Adenosine receptor A2a (Homo sapiens, UniProt P29274); experiment: Antagonist activity at human adenosine 2A receptor expressed in T-REx-CHO cells preincubated for 1 hr followed by NECA stimulation and measured after 30 mins by Eu-cAMP tracer based TR-FRET assay; assay type: functional, cell-based; conditions: filed as antagonist, time 1.5 hrs
T1 sequence (P29274 whole entry): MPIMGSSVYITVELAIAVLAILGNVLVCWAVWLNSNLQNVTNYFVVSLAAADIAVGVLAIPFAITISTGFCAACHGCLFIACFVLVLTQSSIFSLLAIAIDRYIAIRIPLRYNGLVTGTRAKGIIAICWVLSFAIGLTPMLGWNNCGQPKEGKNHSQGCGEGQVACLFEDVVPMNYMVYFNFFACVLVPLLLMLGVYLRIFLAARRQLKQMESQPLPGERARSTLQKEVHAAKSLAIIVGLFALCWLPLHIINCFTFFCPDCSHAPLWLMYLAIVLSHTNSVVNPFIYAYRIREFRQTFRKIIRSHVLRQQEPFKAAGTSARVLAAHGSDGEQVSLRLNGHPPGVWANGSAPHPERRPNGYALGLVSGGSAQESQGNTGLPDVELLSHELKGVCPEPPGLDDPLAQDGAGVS

[4] = biological target: T2, Adenosine receptor A2b (Homo sapiens) (UniProt P29275); experiment: Antagonist activity at human adenosine 2B receptor expressed in CHO-K1 cells preincubated for 1 hr followed by NECA stimulation and measured after 30 mins by Eu-cAMP tracer based TR-FRET assay; assay type: functional, cell-based; conditions: filed as antagonist, time 1.5 hrs
T2 sequence (whole entry): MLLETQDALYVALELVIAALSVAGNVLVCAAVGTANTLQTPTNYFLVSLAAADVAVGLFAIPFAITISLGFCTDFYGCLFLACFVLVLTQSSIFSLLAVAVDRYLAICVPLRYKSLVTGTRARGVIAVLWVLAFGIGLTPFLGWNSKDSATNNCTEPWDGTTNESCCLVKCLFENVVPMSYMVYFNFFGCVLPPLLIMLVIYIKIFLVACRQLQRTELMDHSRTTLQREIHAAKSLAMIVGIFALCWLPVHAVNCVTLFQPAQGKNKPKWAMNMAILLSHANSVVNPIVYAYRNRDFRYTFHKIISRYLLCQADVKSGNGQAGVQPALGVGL

Adenosine receptor A2a [5] = biological target: T1, Adenosine receptor A2a; experiment: Antagonist activity at human adenosine 2A receptor expressed in HEK293 cells assessed as reduction in NECA-induced cAMP level incubated for 15 mins by HTRF assay; assay type: functional, cell-based
Adenosine receptor A2a [6] = biological target: T1, Adenosine receptor A2a; experiment: Inhibition of FRET-labelled CA200645 binding to human adenosine 2A receptor expressed in CHO cells incubated for 2 hr by TR-FRET assay; assay type: cell-based
Adenosine receptor A1 = biological target: T3, Adenosine receptor A1 (Homo sapiens, UniProt P30542); experiment: Inhibition of FRET-labelled CA200645 binding to human adenosine A1 receptor expressed in CHO cells incubated for 2 hr by TR-FRET assay; assay type: cell-based
T3 sequence (P30542 whole entry): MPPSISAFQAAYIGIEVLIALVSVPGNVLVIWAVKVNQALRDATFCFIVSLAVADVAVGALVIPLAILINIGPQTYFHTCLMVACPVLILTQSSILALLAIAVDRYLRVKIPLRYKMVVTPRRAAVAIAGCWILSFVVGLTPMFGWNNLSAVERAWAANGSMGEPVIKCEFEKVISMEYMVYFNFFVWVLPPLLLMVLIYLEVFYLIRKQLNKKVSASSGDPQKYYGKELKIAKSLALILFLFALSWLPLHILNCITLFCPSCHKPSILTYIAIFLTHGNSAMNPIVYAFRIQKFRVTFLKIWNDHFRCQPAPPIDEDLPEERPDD

Adenosine receptor A3 = biological target: T4, Adenosine receptor A3 (Homo sapiens, UniProt P0DMS8); experiment: Inhibition of FRET-labelled CA200645 binding to human adenosine A3 receptor expressed in CHO cells incubated for 2 hr by TR-FRET assay; assay type: cell-based
T4 sequence (P0DMS8 whole entry): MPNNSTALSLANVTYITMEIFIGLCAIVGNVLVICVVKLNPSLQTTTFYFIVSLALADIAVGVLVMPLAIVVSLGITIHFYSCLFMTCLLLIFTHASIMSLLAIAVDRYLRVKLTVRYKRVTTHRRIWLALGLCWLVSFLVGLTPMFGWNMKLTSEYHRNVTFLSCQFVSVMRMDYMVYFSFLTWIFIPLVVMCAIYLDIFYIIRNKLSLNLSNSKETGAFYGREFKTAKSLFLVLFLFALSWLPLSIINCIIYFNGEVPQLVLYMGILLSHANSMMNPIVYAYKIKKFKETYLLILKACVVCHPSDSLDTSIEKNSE

Adenosine receptor A2a [7] = biological target: T1, Adenosine receptor A2a; experiment: Antagonist activity at adenosine 2A receptor in human blood assessed as reversal of NECA/LPS-stimulated TNF-alpha release incubated for 5 hrs; assay type: tissue-based
[8] = Tmax in human at 75 to 200 mg administered as single ascending dose; assay type: ADME; conditions: in vivo, dose 75-200 mg
[9] = Tmax in human at 75 to 200 mg administered as multiple ascending dose; assay type: ADME; conditions: in vivo, dose 75-200 mg
[10] = Cmax in human at 75 to 200 mg; assay type: ADME; parameters: dose 75-200
[11] = Half life in human at 75 to 200 mg; assay type: ADME; conditions: dose 75-200 mg
[12] = biological target: Adenosine receptor A2a (Rattus norvegicus) (UniProt P30543); experiment: Antagonist activity at adenosine 2A receptor in rat PC12 cells assessed as reduction in NECA-induced cAMP level incubated for 30 mins by TR-FRET assay; assay type: functional, cell-based; conditions: PC-12, filed as antagonist
Chain of Adenosine receptor A2a (Rattus norvegicus) (P30543 whole entry): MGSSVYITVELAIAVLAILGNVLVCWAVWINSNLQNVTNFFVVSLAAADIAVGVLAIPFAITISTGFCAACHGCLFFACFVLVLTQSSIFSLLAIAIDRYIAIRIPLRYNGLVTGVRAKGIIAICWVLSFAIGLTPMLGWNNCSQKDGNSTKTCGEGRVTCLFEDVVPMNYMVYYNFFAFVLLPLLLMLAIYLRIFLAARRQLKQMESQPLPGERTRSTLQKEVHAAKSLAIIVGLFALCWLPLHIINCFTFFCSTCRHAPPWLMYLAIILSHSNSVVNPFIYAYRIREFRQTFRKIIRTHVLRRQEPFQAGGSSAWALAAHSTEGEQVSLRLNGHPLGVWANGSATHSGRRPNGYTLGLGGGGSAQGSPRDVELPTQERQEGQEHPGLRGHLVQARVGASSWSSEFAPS

Adenosine receptor A2a [13] = biological target: T1, Adenosine receptor A2a; experiment: Antagonist activity at human adenosine 2A receptor expressed in HEK293 cells assessed as reduction in cAMP production preincubated for 10 mins followed by 3 nM A2A agonist NECA addition and measured after 30 mins by EU-cAMP tracer based TR-FRET assay; assay type: functional, cell-based
Adenosine receptor A2a [14] = biological target: T1, Adenosine receptor A2a; experiment: Antagonist activity at human adenosine 2A receptor expressed in HEK293 cells assessed as reduction in cAMP production preincubated for 10 mins followed by 5 nM A2A agonist NECA addition and measured after 30 mins by EU-cAMP tracer based TR-FRET assay; assay type: functional, cell-based
Adenosine receptor A2a [15] = biological target: T1, Adenosine receptor A2a; experiment: Antagonist activity at human adenosine 2A receptor expressed in HEK293 cells assessed as reduction in cAMP production preincubated for 10 mins followed by adenosine addition and measured after 30 mins by EU-cAMP tracer based TR-FRET assay; assay type: functional, cell-based
Adenosine receptor A2a [16] = biological target: T1, Adenosine receptor A2a; experiment: Antagonist activity at adenosine 2A receptor in human peripheral blood lymphocytes assessed as reduction in NECA-stimulated CREB phosphorylation by flow cytometric analysis; assay type: functional, cell-based, PBL
Homo sapiens [17] = organism: Homo sapiens; experiment: Selectivity ratio of Ki for human adenosine A1 receptor to Ki for human Adenosine 2A receptor
Homo sapiens [18] = organism: Homo sapiens; experiment: Selectivity ratio of Ki for human adenosine A3 receptor to Ki for human Adenosine 2A receptor
Homo sapiens [19] = organism: Homo sapiens; experiment: Selectivity ratio of Ki for human adenosine 2B receptor expressed in HEK293 cells to Ki for human adenosine 2A receptor expressed in HEK293 cells; assay type: cell-based

Structure (SMILES): COc1ccc(N2CCOCC2)c2sc(NC(=O)N3CCC(C)(O)CC3)nc12 [TOZADENANT]
half-life [1]: 11 min
Cmax [2]: 337 ng/mL

Structure (SMILES): COc1cccc2c(-c3cn(Cc4cccc(C(C)(O)C(F)(F)F)[n+]4[O-])nn3)nc(N)nc12 (configuration not stated)
Kb (Adenosine receptor A2a [3]): < 100 nM
Kb [4]: < 100 nM

Structure (SMILES): COCCn1cc(C(=O)Nc2nc3c(OC)ncc(N4CCOCC4)c3s2)cn1
IC50 (Adenosine receptor A2a [5]): < 10 nM
half-life [1]: 49 min
Cmax [2]: 1390 ng/mL

Structure (SMILES): COCCn1cc(C(=O)Nc2cnc3c(C4CCOCC4)ccc(OC)c3n2)cn1
half-life [1]: 20.3 min
Cmax [2]: 1220 ng/mL

Structure (SMILES): COc1ncc(N2CCOCC2)c2sc(NC(=O)N3CCC(C)(O)CC3)nc12
half-life [1]: 10.3 min
Cmax [2]: 449 ng/mL

Structure (SMILES): COc1ncc(-c2ccccc2)c2ncc(NC(=O)N3CCC(C)(O)CC3)nc12
IC50 (Adenosine receptor A2a [5]): < 100 nM

Structure (SMILES): COc1cccc2c(-c3cn(Cc4cccc(C(C)(C)O)n4)nn3)nc(N)nc12
Kb (Adenosine receptor A2a [3]): < 100 nM
Kb [4]: < 100 nM

Structure (SMILES): COCCOc1ccc(N2CCN(CCn3ncc4c3nc(N)n3nc(-c5ccco5)nc43)CC2)cc1
Ratio Ki (Homo sapiens [17]): 1000
Ratio Ki (Homo sapiens [18]): 1000
Ratio Ki (Homo sapiens [19]): 1000

Continued, values first:

Ki (Adenosine receptor A2a [6]): 1.3 nM
Ki (Adenosine receptor A1): 260 nM
Ki (Adenosine receptor A3): 62 nM
IC50 (Adenosine receptor A2a [7]): > 200 nM
Structure (SMILES): Cc1cccnc1CNC(=O)c1c(N)nc(-c2ccco2)nc1OCCF

Tmax [8]: 2 h
Tmax [9]: 1.5 h
Cmax [10]: 1170 ng/mL
half-life [11]: 1200 min
Structure (SMILES): Cc1c(C#N)cccc1-c1cc(-c2cn(Cc3cccc(C(C)(C)O)n3)nn2)nc(N)n1 [ETRUMADENANT]

half-life [1]: 66.6 min
Cmax [2]: 1440 ng/mL
Structure (SMILES): COc1ccc(-c2cnn(C)c2)c2nc(NC(=O)N3CC[C@@]4(CCCOC4)C3)[nH]c12

Kb [12]: < 10 µM
Structure (SMILES): Nc1nc(-c2ccccc2)c(-c2ccc(O)c(Cl)c2)n2ccnc12

IC50 (Adenosine receptor A2a [13]): 0.5 nM
IC50 (Adenosine receptor A2a [14]): 2 nM
IC50 (Adenosine receptor A2a [15]): 49 nM
IC50 (Adenosine receptor A2a [16]): 20 nM
Structure (SMILES): NC(=O)Cc1cc(N2CCN(CCn3c(=O)sc4c3nc(N)n3nc(-c5ccco5)nc43)CC2)c(F)cc1F
